Reference: patent publication US8383608B2, “Imidazolidine compounds as androgen receptor modulators” (Dart Therapeutics LLC, priority 2008, dated 2013)
Like-named read-outs stand apart in the source and are kept apart here.

Legend:
[1] = test system: castrated immature young rats; assay: Adapted model of Hershberger's test; assay type: in vivo, Sprague Dawley rats; details: Rattus norvegicus, po, 96 h, ORX control = 0%, SHAM control = 100%, per os daily for 4 days, dose tested 10 mg/kg
Method: The selective modulating activity of the androgen receptor is tested in a model of castrated immature young rats. This model, which is widely recognised for evaluating the anabolic effects of androgen compounds on the muscles and on the prostate, has been described by Hershberger et al. 1953 Proc. Soc. Expt. Biol. Med. 83:175.
The method is based on the measurement of the well-known effects of androgens on the growth of the muscles and the accessory male sex organs in animals, and also in men. The consequences of castration appear in the form of a rapid involution and atrophy of the prostate and the seminal vesicles and of the anus-lifting muscle (levator ani). This effect may be completely compensated by an exogeneous administration of androgen, in particular of testosterone. The model is thus used to determine the capacity of the tested molecules to maintain the weight of the accessory sex and muscle organs in immature castrated rats, and therefore their androgenic efficacy.
Immature young Sprague Dawley rats (4 to 5 weeks old) weighing approximately 140-160 g (Charles River, Les Oncins, FRANCE) are distributed randomly in various groups and are kept in an environment at 22±2° C. with an alternating day/night cycle of 12 hours and ad libitum access to food and drink.
On day 0 (seven days before commencement of the first treatment) the rats are weighed individually then anaesthetised with an intraperitoneal dose of Ketamine/xylazine (85/15 mg/kg, approximately 2 ml/kg). Each animal is then placed on a sterile field and the abdomen and the scrotum are disinfected with Betadine and 70% alcohol. In the case of the orchidectomised control animals (ORX), the testicles are removed via an incision in the middle of the scrotum. A sterile suture is then made to ligature the supra-testicular portion of the tissue prior to surgical section of each testicle. The groups of animals to be treated by the tested compounds are operated on in an identical manner. In the case of the intact control animals (SHAM), the testicles are similarly extracted and reintroduced delicately to their original location. The site of surgical intervention is then sutured using sterile suture thread, and the site is disinfected again by application of Betadine. Each animal is then kept under a sterile pad until it awoke, before being returned to its cage. The animals are kept in an environment at 22±2° C. with an alternating day/night cycle of 12 hours and ad libitum access to food and drink. The animals are treated with the molecules to be tested from post-surgery day 7 and until day 10 preceding sacrifice (day 11).
The rats are split into groups and treated daily from day 7 to day 10 under the conditions defined below: • 1. SHAM control group: Vehicle (PEG400/DMSO/water; 79/1/20) administered per os. • 2. ORX control group: Vehicle (PEG400/DMSO/water; 79/1/20) administered per os. • 3. Treated ORX group: The tested compounds are administered individually per os in suspension in the vehicle described above, in a dose of 10 mg/kg.
After treatment for 4 successive days, the animals are decapitated using a guillotine. The levator ani and the ventral prostate are removed and weighed individually. For comparing inter-experimental data, the weight of each organ is standardised and expressed in milligrammes per 100 g of the weight of the animal (W). For each organ, the average of the standardised weights of the ORX control group is fixed by definition at 0% and the average of the standardised weights of the SHAM control group is fixed by definition at 100%. The efficacy of each product is expressed as a percentage and calculated using the following formula: (Wtreated−WORX)/(WSHAM−WORX)×100
A subsequent ANOVA test is used for statistical analysis to identify the differences between groups.

[2] = Determination of absolute bioavailability (restricted PK profile, oral and intravenous); assay type: in vivo; details: male, Sprague-Dawley, rat, plasma, po, 10 mg/kg, absolute bioavailability (F), male Sprague Dawley rats, oral 10 mg/kg AUC(0-6 h) vs intravenous 3 mg/kg AUC(0-3 h); read-out: Bioavailability
Method: To screen rapidly imidazolidines derivatives based on their absolute bioavailabity, restricted pharmacokinetic profile with only fours sampling time points after oral and intravenous route is investigated in Sprague Dawley rats as follows: each test compound is dosed orally (10 mg/kg) and intravenously (3 mg/kg) to groups of 3 male Sprague Dawley rats. Oral doses are administered as solution in EtOH/PEG400/H2O (1/79/20; v/v) by esophageal gavage (2 mg/mL; 5 mL/kg) and intravenous dose is given as solution in DMSO/PEG400/H2O (1/65/34; v/v) as a bolus in the tail vein (3 mg/mL; 1 mL/kg). Before oral dosing, animals are deprived of food (water ad libitum) for at least 16 hours before the start of the study and 6 hours after administration.
Blood is collected at the retro-orbital sinus into polypropylene tubes (Li-heparinate) at +4° C. at the following sampling-times: 0.083, 0.25, 1 and 3 h after intravenous injection and 0.25, 1, 3 and 6 hours after oral dosing. Three (3) animals are sampled per time-point; each animal being sampled four times. After centrifugation at 5000 rpm for 10 min at +4° C., plasma is collected into polypropylene tubes and kept frozen at −20° C. pending assays. Plasma samples are assayed by a LC-MS/MS method with a lower limit of quantification of 1 to 10 ng/mL depending on the compound (volume of plasma: 100 μL).
A LC-MS/MS method for quantification in heparinized plasma was developed for each test compound. Sample preparation consists of a precipitation of plasma proteins with methanol and filtration by centrifugation of supernatant on Captiva deep-well 96 0.2 μm filter plates. Water was added to methanol supernatant phase prior to analysis by liquid chromatography (Pursuit 5 C18 20×2.0 mm VARIAN, 2 μL loop, gradient Water/Methanol (90/10 to 0/100) over 1.7 min) with turboionspray tandem mass spectrometry (API4000) in negative mode using multiple reaction monitoring. The method includes 8 standard and 3 quality control levels with lower limit of quantification corresponding to first standard level.
Exposures are determined using a non compartmental model (WinNonLin 2.1) and the absolute bioavailability (F) is calculated as follows: [AUC(0-6 h) oral*3 mg/kg]/AUC(0-3 h) IV 10 mg/kg] and expressed in percentage.

[3] = levator ani weight, read-out: Anabolic activity %
[4] = ventral prostate weight, read-out: Androgenic activity % (Prostate)

CN1C(=O)N(c2ccc(C#N)c(C(F)(F)F)c2)C(=O)C1(CO)c1ccc(Cl)cc1 (stereo not drawn) [Example 7, 4-[4-(4-Chlorophenyl)-2,5-dioxo-4-hydroxymethyl-3-methyl-imidazolidin-1-yl)-2-trifluoromethylbenzonitrile]
response vs control in vivo at 10 mg/kg [1, 3]: 25 to 50% | response vs control in vivo at 10 mg/kg [1, 4]: 0% | bioavailability [2]: > 90%

CN1C(=O)N(c2ccc(C#N)c(C(F)(F)F)c2)C(=O)[C@@]1(CO)c1ccccc1 [Example 10, (S)-4-[2,5-Dioxo-4-(hydroxymethyl)-3-methyl-4-phenylimidazolidin-1-yl]-2-trifluoromethylbenzonitrile]
response vs control in vivo at 10 mg/kg [1, 3]: 75 to 100% | response vs control in vivo at 10 mg/kg [1, 4]: 0.5 to 25% | bioavailability [2]: > 90%

CCN1C(=O)N(c2ccc(C#N)c(C(F)(F)F)c2)C(=O)C1(CO)c1ccccc1 (stereo not drawn) [Example 12, 4-[2,5-Dioxo-3-ethyl-4-(hydroxymethyl)-4-phenylimidazolidin-1-yl]-2-trifluoromethylbenzonitrile]
response vs control in vivo at 10 mg/kg [1, 3]: 75 to 100% | response vs control in vivo at 10 mg/kg [1, 4]: 50 to 75% | bioavailability [2]: 50 to 90%
